Results published in patent publication US11655235B2, “Pyrrolidine and piperidine compounds” (YUHAN CORPORATION, priority 2019, dated 2023).

What was measured:
[1] = target: T1, Recombinant human FAP (Homo sapiens, UniProt Q12884); assay: FAP inhibition, fluorogenic substrate Z-Gly-Pro-AMC; type: biochemical; details: for inhibition at 1 µM: read-out: hFAP inhibition % at 1 μM
T1 construct: purchased R&D systems
T1 sequence (Q12884 1-760): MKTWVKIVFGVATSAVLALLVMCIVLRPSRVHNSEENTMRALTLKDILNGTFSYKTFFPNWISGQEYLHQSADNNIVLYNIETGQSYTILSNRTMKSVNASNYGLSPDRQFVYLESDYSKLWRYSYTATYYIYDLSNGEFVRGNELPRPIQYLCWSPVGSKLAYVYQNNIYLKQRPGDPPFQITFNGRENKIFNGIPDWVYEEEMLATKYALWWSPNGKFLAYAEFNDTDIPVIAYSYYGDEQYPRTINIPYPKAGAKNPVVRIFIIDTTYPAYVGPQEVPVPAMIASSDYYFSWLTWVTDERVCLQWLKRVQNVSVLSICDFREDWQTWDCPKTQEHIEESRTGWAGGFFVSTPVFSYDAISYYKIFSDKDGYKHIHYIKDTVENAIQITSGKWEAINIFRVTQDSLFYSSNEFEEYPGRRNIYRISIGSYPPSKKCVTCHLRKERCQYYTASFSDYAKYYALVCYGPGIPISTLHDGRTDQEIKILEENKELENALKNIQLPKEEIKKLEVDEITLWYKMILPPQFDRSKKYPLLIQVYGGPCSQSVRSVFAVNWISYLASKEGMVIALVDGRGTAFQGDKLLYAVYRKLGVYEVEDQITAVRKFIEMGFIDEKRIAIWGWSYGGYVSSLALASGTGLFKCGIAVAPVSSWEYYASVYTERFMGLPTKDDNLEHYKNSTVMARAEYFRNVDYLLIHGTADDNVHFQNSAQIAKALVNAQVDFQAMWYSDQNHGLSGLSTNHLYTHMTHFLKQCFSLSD
Protocol: The compounds according to the present technology were evaluated in terms of the inhibitory effect on the activity of dipeptidyl peptidases including FAP by using a substrate producing fluorescent substances upon enzymatic decomposition. The test was conducted at 25° C. to get a final reaction volume of 100 μL in a 96 black well plate. […] Briefly, the test compounds were dissolved in dimethyl sulfoxide (DMSO) at a concentration of 20 mM and then subjected to serial dilution, thereby creating an 8 point curve. As for the control group, a 6 point curve created by serial dilution of Talabostat in the same buffer solution was used. Fluorescence intensity was measured using a microplate reader (Flexstation3, Molecular Devices) under the wavelength condition exciting at 380 nm and reading the emission at 460 nm. The inhibitory effect of the test compounds was measured as a decrease (%) in the signal rate as compared to the control group without any inhibitor. Data was fixed to a logistic model with four variables and IC50 value was calculated using GraphPad Prism program. Recombinant human FAP (R&D systems) was diluted with 50 mM tris (pH 7.5) buffer comprising 1 M of sodium chloride and 1 mg/ml of bovine serum albumin (BSA) to be 10 ng per final reaction. The test compounds were subjected to serial dilution in a buffer under the condition containing up to 0.1% of DMSO. Z-Gly-Pro-AMC (Bachem) was used as a substrate. By dissolving in DMSO and then diluting in the same buffer, the substrate was added to be […] per final reaction.

[2] = target: DPP4 (Homo sapiens, UniProt P27487); assay: DPP4 inhibition, fluorogenic substrate H-Gly-Pro-AMC; type: biochemical; design: purchased R&D Systems; details: for inhibition at 1 µM: read-out: hDPP4 inhibition % at 1 μM; for IC50: recombinant human DPP4
Protocol: The compounds according to the present technology were evaluated in terms of the inhibitory effect on the activity of dipeptidyl peptidases including FAP by using a substrate producing fluorescent substances upon enzymatic decomposition. The test was conducted at 25° C. to get a final reaction volume of 100 μL in a 96 black well plate. […] Briefly, the test compounds were dissolved in dimethyl sulfoxide (DMSO) at a concentration of 20 mM and then subjected to serial dilution, thereby creating an 8 point curve. As for the control group, a 6 point curve created by serial dilution of Talabostat in the same buffer solution was used. Fluorescence intensity was measured using a microplate reader (Flexstation3, Molecular Devices) under the wavelength condition exciting at 380 nm and reading the emission at 460 nm. The inhibitory effect of the test compounds was measured as a decrease (%) in the signal rate as compared to the control group without any inhibitor. Data was fixed to a logistic model with four variables and IC50 value was calculated using GraphPad Prism program. As for recombinant human DPP4 (R&D Systems), 25 mM tris (pH 8.0) buffer as a buffer solution and H-Gly-Pro-AMC (Bachem) as a substrate were used. As for recombinant human DPP7 (R&D Systems), 25 mM MES (pH 6.0) buffer as a buffer solution and Lys-Pro-AMC (Bachem) as a substrate were used. As for recombinant human DPP8 (PBS Bioscience), as a buffer solution, a 10 mM tris (pH 7.4) buffer comprising 10 mM of magnesium chloride and 0.05% of Tween 20, and Z-Ala-Pro-AMC (BPS Bioscience) as a substrate were used. As for recombinant human DPP9 (R&D Systems), a 25 mM tris (pH 8.0) buffer as a buffer solution and H-Gly-Pro-AMC (Bachem) as a substrate were used. As for recombinant human PREP (R&D System), as a buffer solution, a 25 mM tris (pH 7.5) buffer comprising 250 mM sodium chloride and 2.5 mM DTT (Dithiolthreitol), and Z-Gly-Pro-AMC (Bachem) as a substrate were used. The evaluation was made by using 10 ng of DPP4, PDD7, and PREP, 20 ng of DPP8, and 50 ng of DPP9 based on the final reaction. In the evaluation of DPP4, the test compounds were subjected to serial dilution in a buffer under the condition containing up to 0.1% of DMSO. In the evaluation of DPP7, DPP8, DPP9, and PREP, the test compounds were subjected to serial dilution in each buffer under the condition containing up to 0.5% of DMSO.

[3] = recombinant human FAP, substrate Z-Gly-Pro-AMC
[4] = 25° C., Z-Gly-Pro-AMC substrate

Sequence of DPP4 (P27487 whole entry): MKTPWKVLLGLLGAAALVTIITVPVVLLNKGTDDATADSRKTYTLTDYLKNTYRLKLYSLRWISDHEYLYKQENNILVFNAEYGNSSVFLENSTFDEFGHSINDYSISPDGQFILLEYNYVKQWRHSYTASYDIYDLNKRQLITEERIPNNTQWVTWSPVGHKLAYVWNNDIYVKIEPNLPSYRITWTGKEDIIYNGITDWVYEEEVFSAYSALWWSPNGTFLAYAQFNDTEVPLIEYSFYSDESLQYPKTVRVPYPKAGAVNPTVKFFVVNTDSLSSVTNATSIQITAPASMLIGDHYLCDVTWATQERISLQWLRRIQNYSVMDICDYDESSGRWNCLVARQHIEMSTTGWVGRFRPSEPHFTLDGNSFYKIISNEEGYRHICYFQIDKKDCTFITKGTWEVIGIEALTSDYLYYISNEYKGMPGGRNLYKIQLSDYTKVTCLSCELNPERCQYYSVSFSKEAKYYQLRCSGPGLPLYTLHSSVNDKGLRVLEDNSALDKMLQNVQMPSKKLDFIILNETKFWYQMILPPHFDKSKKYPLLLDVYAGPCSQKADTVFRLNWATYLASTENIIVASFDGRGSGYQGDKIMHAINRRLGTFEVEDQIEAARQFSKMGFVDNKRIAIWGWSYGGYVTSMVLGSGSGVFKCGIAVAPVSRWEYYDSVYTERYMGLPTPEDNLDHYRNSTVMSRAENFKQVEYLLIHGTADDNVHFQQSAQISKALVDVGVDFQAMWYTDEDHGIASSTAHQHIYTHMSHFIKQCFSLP

SMILES: COC(=O)C1Cc2ccc(O[C@H]3CCN(CC(=O)N4CCC[C@H]4C#N)C3)cc2O1 (stereo partly drawn) [Example 86, Methyl 6-(((S)-1-(2-((S)-2-cyanopyrrolidin-1-yl)-2-oxoethyl)pyrrolidin-3-yl)oxy)-2,3-dihydrobenzofuran-2-carboxylate]
- inhibition at 1 µM [1]: 70.7%
- inhibition at 1 µM [2]: 6.8%

SMILES: CC(=O)N1CCN(c2ccc(O[C@H]3CCN(CC(=O)N4CCC[C@H]4C#N)C3)cc2)CC1 [Example 98, (S)-1-(2-((S)-3-(4-(4-acetylpiperazin-1-yl)phenoxy)pyrrolidin-1-yl)acetyl)pyrrolidine-2-carbonitrile]
- inhibition at 1 µM [1]: 63.2%
- inhibition at 1 µM [2]: 9.1%

SMILES: Cc1oc2ccccc2c1C(=O)N[C@H]1CCN(CC(=O)N2CCC[C@H]2C#N)C1 [Example 42, N—((S)-1-(2-((S)-2-cyanopyrrolidin-1-yl)-2-oxoethyl)pyrrolidin-3-yl)-2-methylbenzofuran-3-carboxamide]
- inhibition at 1 µM [1]: 84.6%
- inhibition at 1 µM [2]: 1.4%

SMILES: N#C[C@@H]1CCCN1C(=O)CN1CC[C@H](NC(=O)c2ccc3ccccc3n2)C1 [Example 33, N—((S)-1-(2-((S)-2-cyanopyrrolidin-1-yl)-2-oxoethyl)pyrrolidin-3-yl)quinoline-2-carboxamide]
- inhibition at 1 µM [1]: 66.1%
- hDPP4 inhibition % at 1 μM [2]: No inhibition**

SMILES: N#C[C@@H]1C[C@H](F)CN1C(=O)CN1CCC(Oc2ccc(Cl)c3ncccc23)CC1 [Example 418, (2S,4S)-1-[2-[4-[(8-chloro-5-quinolyl)oxy]-1-piperidyl]acetyl]-4-fluoro-pyrrolidine-2-carbonitrile]
- IC50 [1, 3]: 3.7 nM
- IC50 [2]: 4670 nM

SMILES: N#C[C@@H]1CCCN1C(=O)CN1CC[C@H](Oc2ccc(-c3ccccc3)cc2)C1 [Example 83, (S)-1-(2-((S)-3-([1,1′-biphenyl]-4-yloxy)pyrrolidin-1-yl)acetyl)pyrrolidine-2-carbonitrile]
- inhibition at 1 µM [1]: 68.1%
- inhibition at 1 µM [2]: 6.3%

SMILES: N#C[C@@H]1C[C@H](F)CN1C(=O)CN1CCC(Oc2cccc3ncc(F)cc23)CC1 [Example 416, (2S,4S)-4-fluoro-1-[2-[4-[(3-fluoro-5-quinolyl)oxy]-1-piperidyl]acetyl]pyrrolidine-2-carbonitrile]
- IC50 [1, 3]: 2.3 nM
- IC50 [2]: 6840 nM

SMILES: N#C[C@@H]1CCCN1C(=O)CN1CC[C@H](NC(=O)Cc2cccc3ccccc23)C1 [Example 38, N—((S)-1-(2-((S)-2-cyanopyrrolidin-1-yl)-2-oxoethyl)pyrrolidin-3-yl)-2-(naphthalen-1-yl)acetamide]
- IC50 [1, 4]: 170 nM
- hDPP4 inhibition % at 1 μM [2]: No inhibition**

SMILES: CN(c1cccc2ccncc12)C1CCN(CC(=O)N2C[C@@H](F)C[C@H]2C#N)CC1 [Example 320, (2S,4S)-4-fluoro-1-[2-[4-[8-isoquinolyl(methyl)amino]-1-piperidyl]acetyl]pyrrolidine-2-carbonitrile]
- IC50 [1, 3]: 46.2 nM
- IC50 [2]: 410 nM

SMILES: N#C[C@@H]1C[C@H](F)CN1C(=O)CN1CCC(Nc2ccc3cnccc3c2)CC1 [Example 341, (2S,4S)-4-fluoro-1-[2-[4-(6-isoquinolylamino)-1-piperidyl]acetyl]pyrrolidine-2-carbonitrile]
- IC50 [1, 3]: 22.7 nM
- IC50 [2]: > 10000 nM

SMILES: N#C[C@@H]1CCCN1C(=O)CN1CC[C@H](Oc2cccc3ccccc23)C1 [Example 62, (S)-1-(2-((S)-3-(naphthalen-1-yloxy)pyrrolidin-1-yl)acetyl)pyrrolidine-2-carbonitrile]
- IC50 [1, 4]: 75.1 nM
- hDPP4 inhibition % at 1 μM [2]: No inhibition**

SMILES: N#C[C@@H]1CCCN1C(=O)CN1CC[C@H](Nc2cccc3ccsc23)C1 [Example 21, (S)-1-(2-((S)-3-(benzo[b]thiophen-7-ylamino)pyrrolidin-1-yl)acetyl)pyrrolidine-2-carbonitrile]
- IC50 [1, 4]: 34.1 nM
- inhibition at 1 µM [2]: 3.6%

SMILES: CN(c1cccc2cnccc12)C1CCN(CC(=O)N2C[C@@H](F)C[C@H]2C#N)CC1 [Example 318, (2S,4S)-4-fluoro-1-[2-[4-[5-isoquinolyl(methyl)amino]-1-piperidyl]acetyl]pyrrolidine-2-carbonitrile]
- IC50 [1, 3]: 18.2 nM
- IC50 [2]: > 10000 nM
